Data reported in patent US20140259191A1, “FISH ANESTHETIC AND METHOD” (AQUA-MOR TECHNOLOGIES LTD., priority 2011, published 2014).

Test system: common carp
Test: Five-hour sedation of common carp, linalool versus 2-phenoxyethanol
Type: in vivo
Conditions: linalool 40 ppm, 2-PE 200 ppm; for Number of fish exhibiting loss of upright position: 26° C.
Method: 2-Phenoxyethanol (2-PE) is used to sedate fish in vaccinations procedures for relatively long periods of time (3 hours). 35 common carp were placed in each of two 60-liter tanks containing water at 26° C. Into one tank was added linalool (in a formulation as described in Example 28) to a concentration of 40 ppm; into the other tank was added 2-PE to a concentration of 200 ppm. Sedation of fish was determined by observation of loss of upright position, operculum movement and response to stimulus (handling). Total exposure time was five hours, at the end of which the fish were transferred 60-liter recovery tanks containing untreated water.

Q: `OCCOc1ccccc1` [2-phenoxyethanol, 2-Phenoxyethanol, reference compound] was tested. Which “Number of fish exhibiting loss of upright position” value (35 common carp per tank, time 10:30 (start), aeration) did it give?
A: 0

Q: And the “Number of fish exhibiting loss of upright position” value (35 common carp per tank, time 11:00 (start 10:30), no aeration)?
A: 1

Q: What about the “Number of fish exhibiting loss of upright position” value (35 common carp per tank, time 11:40 (start 10:30), no aeration) of the same compound?
A: 2

Q: And the “Number of fish exhibiting loss of upright position” value (35 common carp per tank, time 12:35 (start 10:30), no aeration)?
A: 2

Q: What about the “Number of fish exhibiting loss of upright position” value (35 common carp per tank, time 13:35 (start 10:30), no aeration) of the same compound?
A: 2

Q: What about the “Number of fish exhibiting loss of upright position” value (35 common carp per tank, time 14:30 (start 10:30), aeration) of the same compound?
A: 2

Q: And the “Number of fish exhibiting loss of upright position” value (35 common carp per tank, time 15:30 (start 10:30), aeration)?
A: None

Q: What about the “survival at transfer to recovery tank” value (35 common carp per tank, after five hours exposure) of the same compound?
A: All alive

Q: And the “reflex response over the 5 hours of exposure” value (common carp)?
A: reduced substantially from the beginning of the trial and increased with the passage of time until the end of the trial

Q: What about the “sedative effect between 3 and 5 hours of exposure” value (common carp) of the same compound?
A: reduced

Q: And the “recovery after placement in a recovery tank” value (common carp, after five hours exposure)?
A: recovered quickly in few minutes and did not show signs of stress

Q: And the “response to external stimulation during the first 3 hours” value (common carp, sedation levels enabled handling)?
A: did not respond to external stimulation
